Assay results published in patent publication US20230382915A1, “GCN2 AND PERK KINASE INHIBITORS AND METHODS OF USE THEREOF” (Deciphera Pharmaceuticals, LLC, priority 2021, published 2023).

How the values were obtained:
[1] = tested on: H929 Multiple Myeloma cells; assay: Cell proliferation, combination with standard of care, H929; assay type: cell-based; settings: Homo sapiens, NCI-H929; with 3 nM bortezomib, 96 h, FIG. 6B; read-out: inhibition of cell proliferation IC50, combination treatment
Method: H929, RPMI8226, GA-10 and DoHH-2 cells (catalog #CRL-9068) were obtained from the American Type Culture Collection (ATTC, Manassas, VA). H929 Cells were maintained in RPMI-1640 medium supplemented with 20% heat-inactivated fetal bovine serum (catalog #A3840002, ThermoFisher Scientific, Waltham, MA), 1% Penicillin/Streptomycin/L-Glutamine (catalog #10378016, ThermoFisher Scientific, Waltham, MA), and 0.05 mM 2-mercaptoethanol (catalog #21985-023, ThermoFisher Scientific, Waltham, MA). […]
For cell proliferation assay appropriate number of cells (Forty thousand cells for H929. Twenty thousand cells for RPMI8226 and GA-10. Eight thousand cells for DoHH-2) were seeded per well in 200 μL in respective medium were dispensed into a 96-well black clear bottom plate. […] Plates were read on a Synergy2 or equivalent reader (Biotek, Winooski VT) using an excitation of 540 nm and an emission of 600 nm. At the end of the incubation of DoHH-2, cell viability was determined using CellTiter-Glo® assay (Promega, Madison, WI). Luminescence was measured using EnVision MultiLabel Reader (PerkinElmer, Waltham, MA). Data was analyzed using GraphPad Prism software (GraphPad, San Diego, CA) to calculate IC50 values.

PERK enzyme = PERK enzyme (Homo sapiens (Human), UniProt Q9NZJ5); assay: Biochemical assay for PERK (coupled pyruvate kinase/lactate dehydrogenase); settings: 1 mM ATP
Method: Activity of PERK kinase was determined spectroscopically using a coupled pyruvate kinase/lactate dehydrogenase assay that continuously monitors the ATP hydrolysis-dependent oxidation of NADH (e.g., Schindler et al. Science (2000) 289: 1938-1942). Assays were conducted in 384-well plates ([…] final volume) using 10 nM PERK (from Beryllium), 0.25 mg/mL Myelin Basic Protein substrate, 1.5 units pyruvate kinase, 2.1 units lactate dehydrogenase, 1 mM phosphoenol pyruvate, 0.28 mM NADH and 1 mM ATP in assay buffer (100 mM Tris, pH 7.5, 15 mM MgCl2, 0.5 mM DTT, 0.004% (w/v) BSA, and 0.004% Triton X-100). Inhibition of PERK was measured by adding serial diluted test compound (final assay concentration of 1% DMSO). A decrease in absorption at 340 nm was monitored continuously for 6 hours at 30° C. on a multi-mode microplate reader (BioTek). The reaction rate was calculated using the 2-3 h time frame. The reaction rate at each concentration of compound was converted to percent inhibition using controls (i.e., reaction with no test compound and reaction with a known inhibitor) and IC50 values were calculated using software routines in Prism (GraphPad software).

HT-1080 spheroids = assay: Spheroid Western blot assay, HT-1080; assay type: cell-based
Method: NSCLC cell lines H358 (catalog #CRL-5807) and H2030 (catalog #CRL-5914), and fibrosarcoma cell line HT-1080 (catalog […]) were obtained from the American Type Culture Collect (ATTC, Manassas, VA). Cells were grown in RPMI-1640 medium supplemented with 10% heat-inactivated fetal bovine serum and 1% Penicillin/Streptomycin/L-Glutamine (Invitrogen, Carlsbad, CA) at 37° C., 5% CO2, and 95% humidity and maintained at 50-80% confluency until use. Cells were plated at 500,000 cells/well in 24-well Elplasia plates (Corning, Glendale, AZ) with complete growth media at 1 mL/well and incubated overnight at 37° C., 5% CO2, and 95% humidity to form spheroids. The next day, serial dilutions of test compounds were prepared in complete growth media and 500 μL existing media was removed from each well and replaced with fresh media containing compound titers. Spheroids were then incubated with test compounds for 4 hours or 24 hours under the same conditions. […] Western blots were performed to quantify phospho-GCN2 (R&D Systems, Minneapolis, MN), ATF4, CHOP, cleaved PARP, cleaved Caspase 3 and 7, and beta-Actin (Cell Signaling Technology, Danvers, MA). […]

Sequence of PERK enzyme (Q9NZJ5 other isoform, or with tags, fused parts or gaps): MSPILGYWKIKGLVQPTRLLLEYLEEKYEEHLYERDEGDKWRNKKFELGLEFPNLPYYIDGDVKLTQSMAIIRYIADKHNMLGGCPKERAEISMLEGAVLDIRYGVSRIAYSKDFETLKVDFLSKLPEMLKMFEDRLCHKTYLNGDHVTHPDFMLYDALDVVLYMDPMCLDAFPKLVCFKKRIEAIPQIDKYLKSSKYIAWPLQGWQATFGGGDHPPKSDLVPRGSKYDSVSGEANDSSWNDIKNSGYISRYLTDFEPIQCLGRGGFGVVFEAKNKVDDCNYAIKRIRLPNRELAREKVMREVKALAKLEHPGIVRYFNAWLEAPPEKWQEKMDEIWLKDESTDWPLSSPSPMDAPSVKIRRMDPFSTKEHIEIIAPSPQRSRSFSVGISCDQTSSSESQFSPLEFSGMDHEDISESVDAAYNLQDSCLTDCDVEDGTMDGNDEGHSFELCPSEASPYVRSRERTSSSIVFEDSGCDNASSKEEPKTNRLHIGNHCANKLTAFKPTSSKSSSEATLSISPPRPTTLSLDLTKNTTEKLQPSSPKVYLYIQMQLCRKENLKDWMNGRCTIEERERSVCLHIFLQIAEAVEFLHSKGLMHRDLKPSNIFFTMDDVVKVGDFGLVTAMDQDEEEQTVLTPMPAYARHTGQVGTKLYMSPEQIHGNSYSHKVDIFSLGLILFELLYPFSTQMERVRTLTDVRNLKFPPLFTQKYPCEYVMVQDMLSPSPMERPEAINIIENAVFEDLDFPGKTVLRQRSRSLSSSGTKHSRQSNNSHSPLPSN

Cn1cc(-c2cccc(NS(=O)(=O)c3cc(Cl)cc(CO)c3Cl)c2F)c2c(N)ncnc21 [Example 2, N-(3-(4-amino-7-methyl-7H-pyrrolo[2,3-d]pyrimidin-5-yl)-2-fluorophenyl)-2,5-dichloro-3-(hydroxymethyl)benzenesulfonamide]
IC50 [1]: 6 nM
IC50 (PERK enzyme): ≤ 100 nM
upregulation of ATF4 (Western blot quantification) (HT-1080 spheroids): ≤ 15 fold
